Molecules are shown by their SMILES. Values joined by “and” are separate entries in the source; they are usually repeats but may differ in a detail not shown here. Equal values may be shown once. Toxic doses and inconclusive results are not listed.

The assay concerns CD2F1 mice, L1210 leukemia ip, survival T/C. In words: NCI In Vivo Anticancer Drug Screen. Data for tumor model L1210 Leukemia (intraperitoneal) in CD2F1 (CDF1) mice. The settings on record: higher = longer survival. The procedure, abridged:
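Antitumor effect is scored in animals hosting a serially transplanted tumor. Values compare compound-dosed animals against vehicle-only controls as a simple quotient.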

[1] abbreviates: endpoint: mean survival time, dose: 25.0 mg/kg/injection, schedule: Q04DX003 (ip), vehicle: saline.
Setting [2] is: endpoint: mean survival time, dose: 50.0 mg/kg/injection, schedule: Q04DX003 (ip), vehicle: saline.
The mark [3] stands for this setting: endpoint: mean survival time, dose: 100.0 mg/kg/injection, schedule: Q01DX009 (ip), vehicle: saline.
Where [4] appears, read: endpoint: mean survival time, dose: 100.0 mg/kg/injection, schedule: Q01DX001 (ip), vehicle: saline with Tween-80.
[5] abbreviates: endpoint: mean survival time, dose: 50.0 mg/kg/injection, schedule: Q01DX009 (ip), vehicle: saline with Tween-80.
Where [6] appears, read: endpoint: mean survival time, dose: 200.0 mg/kg/injection, schedule: Q01DX001 (ip), vehicle: saline with Tween-80.
The mark [7] stands for this setting: endpoint: mean survival time, dose: 200.0 mg/kg/injection, schedule: Q01DX009 (ip), vehicle: saline with Tween-80.
Setting [8] is: endpoint: mean survival time, dose: 25.0 mg/kg/injection, schedule: Q04DX002 (ip), vehicle: saline with Tween-80.
Where [9] appears, read: endpoint: mean survival time, dose: 50.0 mg/kg/injection, schedule: Q04DX002 (ip), vehicle: saline with Tween-80.
The mark [10] stands for this setting: endpoint: mean survival time, dose: 100.0 mg/kg/injection, schedule: Q04DX002 (ip), vehicle: saline with Tween-80.
Setting [11] is: endpoint: mean survival time, dose: 200.0 mg/kg/injection, schedule: Q04DX002 (ip), vehicle: saline with Tween-80.
The mark [12] stands for this setting: endpoint: mean survival time, dose: 400.0 mg/kg/injection, schedule: Q04DX002 (ip), vehicle: saline with Tween-80.
[13] abbreviates: endpoint: mean survival time, dose: 100.0 mg/kg/injection, schedule: Q04DX003 (ip), vehicle: saline.

Turning to `CCN(CC)CCNc1ccc(C)c2sc3ccccc3c(=O)c12`, the T/C by setting is: (endpoint: mean survival time, dose: 7.5 mg/kg/injection, schedule: Q01DX005 (ip), vehicle: water) 103 % of control; (endpoint: mean survival time, dose: 15.0 mg/kg/injection, schedule: Q01DX005 (ip), vehicle: water) 104 % of control; (endpoint: mean survival time, dose: 25.0 mg/kg/injection, schedule: Q01DX007 (ip), vehicle: saline) 121 % of control; (endpoint: mean survival time, dose: 25.0 mg/kg/injection, schedule: Q01DX009 (ip), vehicle: saline) 118 % of control; (endpoint: mean survival time, dose: 25.0 mg/kg/injection, schedule: Q03DX003 (ip), vehicle: saline) 107 % of control; under setting [1], 107 % of control. The T/C reads like this: (endpoint: mean survival time, dose: 30.0 mg/kg/injection, schedule: Q01DX005 (ip), vehicle: water) 106 % of control; (endpoint: mean survival time, dose: 50.0 mg/kg/injection, schedule: Q03DX003 (ip), vehicle: saline) 112 % of control; under setting [2], 114 % of control; (endpoint: mean survival time, dose: 100.0 mg/kg/injection, schedule: Q01DX007 (ip), vehicle: saline) 163 % of control; under setting [3], 171 % of control; (endpoint: mean survival time, dose: 120.0 mg/kg/injection, schedule: Q01DX005 (ip), vehicle: water) 110 % of control. Moreover, the T/C runs as follows: (endpoint: median survival time, dose: 6.25 mg/kg/injection, schedule: Q01DX009 (ip), vehicle: water) 116 % of control; (endpoint: median survival time, dose: 12.5 mg/kg/injection, schedule: Q01DX009 (ip), vehicle: water) 121 % of control; (endpoint: median survival time, dose: 25.0 mg/kg/injection, schedule: Q01DX009 (ip), vehicle: saline with Tween-80) 114 % of control; (endpoint: median survival time, dose: 25.0 mg/kg/injection, schedule: Q01DX009 (ip), vehicle: saline) 116 % of control and 120 % of control and 100 % of control; (endpoint: median survival time, dose: 50.0 mg/kg/injection, schedule: Q01DX009 (ip), vehicle: water) 165 % of control; (endpoint: median survival time, dose: 100.0 mg/kg/injection, schedule: Q01DX009 (ip), vehicle: saline with Tween-80) 198 % of control. Besides, the T/C (endpoint: median survival time, dose: 100.0 mg/kg/injection, schedule: Q01DX009 (ip), vehicle: water) is 112 % of control and the T/C (endpoint: median survival time, dose: 200.0 mg/kg/injection, schedule: Q01DX009 (ip), vehicle: saline with Tween-80) is 118 % of control.
As to `O=c1[nH]c(=O)n(CCCO)cc1F`, the T/C (endpoint: mean survival time, dose: 12.5 mg/kg/injection, schedule: Q01DX005 (ip), vehicle: water) is 111 % of control; the T/C (endpoint: mean survival time, dose: 25.0 mg/kg/injection, schedule: Q01DX005 (ip), vehicle: water) is 115 % of control and 103 % of control; the T/C (endpoint: mean survival time, dose: 50.0 mg/kg/injection, schedule: Q01DX005 (ip), vehicle: water) was 122 % of control and 123 % of control; the T/C (endpoint: mean survival time, dose: 200.0 mg/kg/injection, schedule: Q01DX005 (ip), vehicle: water) is 96 % of control.
Regarding `COc1cc2c(cc1OC)C13CCN4CC5=CCOC6CC(=O)N2C1C6C5CC43` (stereo not drawn) (tested in a mixture with another compound), the T/C under setting [4] is 110 % of control and the T/C under setting [3] is 93 % of control.
With `O/N=C1/C2CCC(C2)C1C(O)(C(F)(F)F)C(F)(F)F` (stereo not drawn), the T/C runs as follows: under setting [5], 93 % of control; under setting [4], 102 % of control; (endpoint: mean survival time, dose: 100.0 mg/kg/injection, schedule: Q01DX009 (ip), vehicle: saline with Tween-80) 101 % of control; under setting [6], 92 % of control; under setting [7], 89 % of control.
For the molecule `CC(C)c1ccc(P(c2ccc(C(C)C)cc2)c2ccc(C(C)C)cc2)cc1`, the T/C is 103 % of control under setting [8], 88 % of control under setting [9] and 88 % of control under setting [10].
As to `CC(C)OC(=O)N(C(=O)OC(C)C)c1ccc(F)cc1`, the T/C is 91 % of control under setting [10], 97 % of control under setting [11] and 94 % of control under setting [12].
For `O=S(OCC1COS(=O)O1)OCC1COS(=O)O1` (stereo not drawn), the T/C reads like this: (endpoint: mean survival time, dose: 100.0 mg/kg/injection, schedule: Q01DX001 (ip), vehicle: saline sonified) 106 % of control; (endpoint: mean survival time, dose: 200.0 mg/kg/injection, schedule: Q01DX001 (ip), vehicle: saline sonified) 97 % of control; (endpoint: mean survival time, dose: 400.0 mg/kg/injection, schedule: Q01DX001 (ip), vehicle: saline sonified) 104 % of control.
Take `COCC1OC(OC(=O)c2ccccc2)C(OC(=O)c2ccccc2)C(OC(=O)c2ccccc2)C1OC` (stereo not drawn): the T/C under setting [5] is 101 % of control and the T/C under setting [7] was 93 % of control.
`CC(=O)Oc1cc2c(=O)oc3cc(OC(C)=O)c(=O)oc3c2c(OC(C)=O)c1OC(C)=O`: the T/C is, setting by setting: (endpoint: mean survival time, dose: 100.0 mg/kg/injection, schedule: Q01DX001 (ip), vehicle: saline) 98 % of control; (endpoint: mean survival time, dose: 200.0 mg/kg/injection, schedule: Q01DX001 (ip), vehicle: saline) 101 % of control; (endpoint: mean survival time, dose: 400.0 mg/kg/injection, schedule: Q01DX001 (ip), vehicle: saline) 110 % of control.
For `CCOC(=O)/C=C1/C=C(C)CC(C)(C)C1` (tested in a mixture with another compound), the T/C under setting [10] is 98 % of control, the T/C under setting [11] was 91 % of control and the T/C under setting [12] was 87 % of control.
As for `S=C=Nc1ccc(Cl)c2ccccc12`, the T/C was 90 % of control (endpoint: mean survival time, dose: 12.5 mg/kg/injection, schedule: Q04DX002 (ip), vehicle: saline with Tween-80); 98 % of control under setting [8]; 102 % of control under setting [9].
Turning to `CCc1ccc(O)cc1O`, the T/C is, setting by setting: under setting [1], 97 % of control; under setting [2], 102 % of control; under setting [13], 94 % of control and 96 % of control.
For `CCOC(=O)CN1CCC(C2(c3cc4ccccc4[nH]3)OCCO2)CC1`, the T/C reads like this: under setting [4], 102 % of control; under setting [6], 102 % of control; (endpoint: mean survival time, dose: 400.0 mg/kg/injection, schedule: Q01DX001 (ip), vehicle: saline with Tween-80) 102 % of control.
Regarding `CCCCCCCCN(C)N=Nc1ccccc1`, the T/C was 110 % of control (endpoint: mean survival time, dose: 79.0 mg/kg/injection, schedule: Q01DX009 (ip), vehicle: Klucel (hydroxypropylcellulose) (HPC)); 124 % of control (endpoint: mean survival time, dose: 177.0 mg/kg/injection, schedule: Q01DX009 (ip), vehicle: Klucel (hydroxypropylcellulose) (HPC)); 122 % of control (endpoint: mean survival time, dose: 266.0 mg/kg/injection, schedule: Q01DX009 (ip), vehicle: Klucel (hydroxypropylcellulose) (HPC)).
Regarding `O=C(OCCOCCOC(=O)N1CCOCC1)N1CCOCC1`, the T/C by setting is: under setting [13], 100 % of control; (endpoint: mean survival time, dose: 200.0 mg/kg/injection, schedule: Q04DX003 (ip), vehicle: saline) 102 % of control; (endpoint: mean survival time, dose: 400.0 mg/kg/injection, schedule: Q04DX003 (ip), vehicle: saline) 96 % of control.

For the origin of these results see PubChem BioAssay AID256 (DTP/NCI, 2004).
